Laboratory results from article PMC11007943 (BMC Chemistry, 2024).
Several values for one entry are separate records, joined by “and”; a condition that tells them apart may be missing. Equal values may be shown once. Entries after “also recorded” stand apart in the source; their conditions may differ. Read-outs that look alike come from different tables or passages of the source.

Experiments:
[1] = molecular target: T1, BChE (Homo sapiens, UniProt P06276); details: read-out: IC50 against BChE; cited from earlier work
[2] = molecular target: T2, AChE (Homo sapiens, UniProt P22303); details: read-out: IC50 against AChE; cited from earlier work
[3] = cited from earlier work
[4] = molecular target: T1, BChE; test: BChE inhibition, modified Ellman's method; type: biochemical
Protocol: Cholinesterase inhibitory activities of all derivatives were assessed using the modified Ellman’s method. Briefly, 20 µL AChE 0.18 units/mL, or 20 µL BChE 0.162 units/mL, and 20 µL DTNB (301 μM) were added to 200 μL sodium phosphate buffer (0.1 mol/L, pH = 7.4) in separate wells of a 96-well microplate and gently mixed. […]. The absorbance of each well was measured at 415 nm using a microplate reader. IC50 and inhibition values were calculated with the software curve expert as the mean of three independent experiments and expressed as mean ± SEM [25, 26].

[5] = molecular target: T2, AChE; test: biochemical; type: biochemical; details: for inhibition at 50 µM: mean ± S.E
[6] = molecular target: T1, BChE; test: Enzyme kinetic study against BChE (Lineweaver–Burk and secondary plots); type: biochemical
From the text: […]. As the concentration of inhibitor 4k increased, the Michaelis–Menten constant (Km) increased, and the maximum reaction rate (Vmax) remained unaffected.
The Ki value provides important information about the strength of the interaction between the inhibitor and the enzyme (Fig. 4).
[…]. A Lineweaver–Burk plot was generated to determine the inhibition type and calculate the Michaelis–Menten constant (Km). Secondary plots were constructed to determine the experimental inhibitor constant (Ki).

[7] = mean ± S.E, read-out: BChE (IC50)
[8] = single graphs behind the mean BChE IC50 of Table 2, read-out: IC50 (individual IC50 graphs, Table S1)

T1 sequence (P06276 29-602): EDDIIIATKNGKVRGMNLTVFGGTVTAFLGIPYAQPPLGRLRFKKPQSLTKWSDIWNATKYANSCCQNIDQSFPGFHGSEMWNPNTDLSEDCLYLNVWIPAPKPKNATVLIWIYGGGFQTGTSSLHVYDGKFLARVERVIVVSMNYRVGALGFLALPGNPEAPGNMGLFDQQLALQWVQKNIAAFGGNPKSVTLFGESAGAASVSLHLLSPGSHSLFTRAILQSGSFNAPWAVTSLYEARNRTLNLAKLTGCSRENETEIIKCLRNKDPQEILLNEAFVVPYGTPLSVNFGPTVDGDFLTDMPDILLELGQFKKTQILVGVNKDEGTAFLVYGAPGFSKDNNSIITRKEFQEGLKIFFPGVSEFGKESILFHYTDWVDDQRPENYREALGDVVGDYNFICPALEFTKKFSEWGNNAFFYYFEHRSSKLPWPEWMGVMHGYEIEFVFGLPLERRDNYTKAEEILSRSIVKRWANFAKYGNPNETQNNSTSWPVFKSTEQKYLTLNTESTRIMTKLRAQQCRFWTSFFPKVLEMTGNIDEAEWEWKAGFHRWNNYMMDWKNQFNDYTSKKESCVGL
T2 sequence (P22303 32-614): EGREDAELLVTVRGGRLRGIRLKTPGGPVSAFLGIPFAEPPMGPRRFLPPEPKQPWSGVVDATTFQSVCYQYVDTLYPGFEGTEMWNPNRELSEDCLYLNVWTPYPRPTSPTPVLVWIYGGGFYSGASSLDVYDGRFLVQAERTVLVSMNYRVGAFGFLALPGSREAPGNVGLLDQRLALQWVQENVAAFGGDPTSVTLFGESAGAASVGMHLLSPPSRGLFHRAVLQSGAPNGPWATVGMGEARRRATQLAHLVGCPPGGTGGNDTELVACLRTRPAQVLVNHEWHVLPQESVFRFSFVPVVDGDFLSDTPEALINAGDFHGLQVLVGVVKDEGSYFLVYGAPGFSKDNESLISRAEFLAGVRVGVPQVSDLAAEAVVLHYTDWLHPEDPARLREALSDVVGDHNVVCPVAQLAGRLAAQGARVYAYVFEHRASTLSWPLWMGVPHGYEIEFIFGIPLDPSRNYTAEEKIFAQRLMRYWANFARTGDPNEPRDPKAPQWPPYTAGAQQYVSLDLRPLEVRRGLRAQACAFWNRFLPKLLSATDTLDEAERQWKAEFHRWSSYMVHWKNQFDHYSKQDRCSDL

SMILES	inhibition at 50 µM ([4]; mean ± S.E) [%]	inhibition at 50 µM [5] [%]	IC50 [4, 7] [µM]	IC50 [4, 8]	other results
CCOc1ccc2c(c1)OC/C(=C\c1ccc(OCCN3CCCCC3)cc1)C2=O [A]	–	–	–	–	IC50 [1]: 0.854 ± 0.04 µM
O=C(O)c1coc2ccc(OCc3ccccc3)cc2c1=O [B]	–	–	–	–	IC50 [2]: 0.37 µM; blood–brain barrier (BBB) permeability [3]: 5.4 ± 0.3 × 10^−6 cm s^−1; IC50 [1]: 5.24 µM
N#CC1=C(N)OC2=C(C(=O)CCC2)C1c1ccccc1 (stereo not drawn) [Compound 4a, 2-Amino-5-oxo-4-phenyl-5,6,7,8-tetrahydro-4H-chromene-3-carbonitrile]	39.8 ± 1.39	21 ± 1.31	–	–	–
N#CC1=C(N)OC2=C(C(=O)CCC2)C1c1ccc([N+](=O)[O-])cc1 (stereo not drawn) [Compound 4b, 2-Amino-4-(4-nitrophenyl)-5-oxo-5,6,7,8-tetrahydro-4H-chromene-3-carbonitrile]	58.7 ± 1.18	28.9 ± 2.56	27.4 ± 2.01	28.8 µM and 26 µM	–
N#CC1=C(N)OC2=C(C(=O)CCC2)C1c1ccc(OCc2ccc(Cl)cc2)cc1 (stereo not drawn) [Compound 4c, 2-Amino-4-{4-[(4-chlorobenzyl)oxy]phenyl}-5-oxo-5,6,7,8-tetrahydro-4Hchromene-3-carbonitrile]	77.7 ± 3.77	23.6 ± 1.2	0.89 ± 0.24	1.07 µM and 0.72 µM	–
N#CC1=C(N)OC2=C(C(=O)CCC2)C1c1ccc(OCc2ccc(Br)cc2)cc1 (stereo not drawn) [Compound 4d, 2-Amino-4-{4-[(4-bromobenzyl)oxy]phenyl}-5-oxo-5,6,7,8-tetrahydro-4Hchromene-3-carbonitrile]	67.8 ± 1.7	23.4 ± 1	1.19 ± 0.31	1.41 µM and 0.97 µM	–
N#CC1=C(N)OC2=C(C(=O)CCC2)C1c1ccc(OCCN2CCOCC2)cc1 (stereo not drawn) [Compound 4e, 2-Amino-4-[4-(2-morpholinoethoxy)phenyl]-5-oxo-5,6,7,8-tetrahydro-4Hchromene-3-carbonitrile]	58.9 ± 0.93	34.4 ± 3.1	26.3 ± 3.34	28.7 µM and 24 µM	–
N#CC1=C(N)OC2=C(C(=O)CCC2)C1c1cccc(OCc2ccc(Cl)cc2)c1 (stereo not drawn) [Compound 4f, 2-Amino-4-{3-[(4-chlorobenzyl)oxy]phenyl}-5-oxo-5,6,7,8-tetrahydro-4H-chromene-3-carbonitrile]	62 ± 7.24	4.42 ± 0.57	5.7 ± 0.68	6.18 µM and 5.21 µM	inhibitory activity against AChE (in words) [5]: nearly inactive
N#CC1=C(N)OC2=C(C(=O)CCC2)C1c1cccc(OCc2ccc(Br)cc2)c1 (stereo not drawn) [Compound 4g, 2-Amino-4-{3-[(4-bromobenzyl)oxy]phenyl}-5-oxo-5,6,7,8-tetrahydro-4Hchromene-3-carbonitrile]	57.3 ± 9.75	15 ± 2.59	13.1 ± 2.59	11.2 µM and 14.9 µM	inhibitory activity against AChE (in words) [5]: nearly inactive
N#CC1=C(N)OC2=C(C(=O)CCC2)C1c1ccccc1OCc1ccc(Cl)cc1 (stereo not drawn) [Compound 4h, 2-Amino-4-{2-[(4-chlorobenzyl)oxy]phenyl}-5-oxo-5,6,7,8-tetrahydro-4H-chromene-3-carbonitrile]	21.3 ± 2.69	7.35 ± 0.56	–	–	–
N#CC1=C(N)OC2=C(C(=O)CCC2)C1c1ccccc1OCc1cccc(Cl)c1 (stereo not drawn) [Compound 4i, 2-Amino-4-{2-[(3-chlorobenzyl)oxy]phenyl}-5-oxo-5,6,7,8-tetrahydro-4H-chromene-3-carbonitrile]	42.8 ± 1.22	19.4 ± 2.39	–	–	–
COc1ccc(COc2ccccc2C2C(C#N)=C(N)OC3=C2C(=O)CCC3)cc1 (stereo not drawn) [Compound 4j, 2-Amino-4-{2-[(4-methoxybenzyl)oxy]phenyl}-5-oxo-5,6,7,8-tetrahydro-4H-chromene-3-carbonitrile]	38.3 ± 4.36	16.3 ± 0.63	–	–	–
COc1cc(C2C(C#N)=C(N)OC3=C2C(=O)CCC3)ccc1OCc1ccc(F)cc1 (stereo not drawn) [Compound 4k, 2-Amino-4-{4-[(4-fluorobenzyl)oxy]-3-methoxyphenyl}-5-oxo-5,6,7,8-tetrahydro-4H-chromene-3-carbonitrile]	80.5 ± 5.08	41.1 ± 2.33	0.65 ± 0.13	–	type of inhibition ([6]; Lineweaver–Burk plot, Km increased, Vmax unaffected): competitive-type inhibition; also recorded: competitive inhibitor; Ki ([6]; from secondary plot of slopes vs inhibitor concentration, R^2 = 0.9876, read-out: Ki (inhibition constant)): 0.55 µM
COc1cc(C2C(C#N)=C(N)OC3=C2C(=O)CCC3)ccc1OCc1cccc(F)c1 (stereo not drawn) [Compound 4l, 2-Amino-4-{4-[(3-fluorobenzyl)oxy]-3-methoxyphenyl}-5-oxo-5,6,7,8-tetrahydro-4H-chromene-3-carbonitrile]	76.1 ± 0.88	33.6 ± 3.29	2.63 ± 0.19	2.77 µM and 2.49 µM	–
COc1cc(C2C(C#N)=C(N)OC3=C2C(=O)CCC3)ccc1OCc1cccc(Cl)c1 (stereo not drawn) [Compound 4m, A-amino-4-{4-[(3-chlorobenzyl)oxy]-3-methoxyphenyl}-5-oxo-5,6,7,8-tetrahydro-4H-chromene-3-carbonitrile]	69.7 ± 1.52	12.9 ± 1.27	1.51 ± 0.2	–	IC50 ([4]; read-out: IC50 (individual IC50 graphs, Table S1)): 1.65 µM and 1.36 µM
O=C(NCCCCCCCCCCNc1c2c(nc3ccccc13)CCCC2)c1cc(=O)c2cc(O)ccc2o1 [E]	–	–	–	–	IC50 [2]: 8 ± 0.2 µM; BBB permeability [3]: 23.1 ± 0.1 × 10^−6 cm s^−1; IC50 [1]: 1.5 ± 0.04 µM
N#CC1=C(N)Oc2c(c(=O)oc3ccccc23)C1c1cc[n+](Cc2ccc(F)cc2)cc1 (stereo not drawn) [F]	–	–	–	–	IC50 [1]: 1.84 ± 0.12 µM
N#CC1=C(N)OC2=C(C(=O)CCC2)C1c1ccc(OCCN2CCCCC2)cc1 (stereo not drawn) [G]	–	–	–	–	IC50 [2]: 20.4 ± 9.3 µM; IC50 [1]: 8.1 ± 0.5 µM
